Active and inactive are the calls of the source. The calls are words filed in the database; no cut-off is given here.
What was measured:
[1] = target: Hormonally up-regulated neu tumor-associated kinase (Homo sapiens) (UniProt P57058); assay: Inhibition of DNA-tagged human HUNK assessed as percent of control at 50000 nM by qPCR analysis relative to control; set-up: scale not given: the % may be the effect or the level left
[2] = tested on: eIF-2-alpha kinase GCN2 (Homo sapiens), Q9P2K8 [S808G]; assay: Inhibition of DNA-tagged human GCN2 S808G mutant kinase domain 2 assessed as percent of control at 50000 nM by qPCR analysis relative to control; set-up: scale not given: the % may be the effect or the level left
[3] = tested on: Fibroblast growth factor receptor 3 (Homo sapiens), P22607 [G697C]; assay: Inhibition of DNA-tagged human FGFR3 G697C mutant assessed as percent of control at 50000 nM by qPCR analysis relative to control; set-up: scale not given: the % may be the effect or the level left
[4] = target: Fibroblast growth factor receptor 1 (Homo sapiens) (UniProt P11362); assay: Inhibition of DNA-tagged human FGFR1 assessed as percent of control at 50000 nM by qPCR analysis relative to control; set-up: scale not given: the % may be the effect or the level left
[5] = target: Mitogen-activated protein kinase 6 (Homo sapiens) (UniProt Q16659); assay: Inhibition of DNA-tagged human ERK3 assessed as percent of control at 50000 nM by qPCR analysis relative to control; set-up: scale not given: the % may be the effect or the level left
[6] = tested on: Epidermal growth factor receptor (Homo sapiens), P00533 [L858R]; assay: Inhibition of DNA-tagged human EGFR L858R mutant assessed as percent of control at 50000 nM by qPCR analysis relative to control; set-up: scale not given: the % may be the effect or the level left
[7] = target: Myotonin-protein kinase (Homo sapiens) (UniProt Q09013); assay: Inhibition of DNA-tagged human DMPK assessed as percent of control at 50000 nM by qPCR analysis relative to control; set-up: scale not given: the % may be the effect or the level left
[8] = target: Citron Rho-interacting kinase (Homo sapiens) (UniProt O14578); assay: Inhibition of DNA-tagged human CIT assessed as percent of control at 50000 nM by qPCR analysis relative to control; set-up: scale not given: the % may be the effect or the level left
[9] = target: Calcium/calmodulin-dependent protein kinase type IV (Homo sapiens) (UniProt Q16566); assay: Inhibition of DNA-tagged human CAMK4 assessed as percent of control at 50000 nM by qPCR analysis relative to control; set-up: scale not given: the % may be the effect or the level left
[10] = target: Calcium/calmodulin-dependent protein kinase type II subunit beta (Homo sapiens) (UniProt Q13554); assay: Inhibition of DNA-tagged human CAMK2B assessed as percent of control at 50000 nM by qPCR analysis relative to control; set-up: scale not given: the % may be the effect or the level left
[11] = target: Calcium/calmodulin-dependent protein kinase type 1D (Homo sapiens) (UniProt Q8IU85); assay: Inhibition of DNA-tagged human CAMK1D assessed as percent of control at 50000 nM by qPCR analysis relative to control; set-up: scale not given: the % may be the effect or the level left
[12] = target: Protein-tyrosine kinase 6 (Homo sapiens) (UniProt Q13882); assay: Inhibition of DNA-tagged human BRK assessed as percent of control at 50000 nM by qPCR analysis relative to control; set-up: scale not given: the % may be the effect or the level left
[13] = target: Activin receptor type-1 (Homo sapiens) (UniProt Q04771); assay: Inhibition of DNA-tagged human ACVR1 assessed as percent of control at 50000 nM by qPCR analysis relative to control; set-up: scale not given: the % may be the effect or the level left
MV4-11 = assay: Cytotoxicity against human MV4-11 cells expressing FLT3-ITD at 0.1-100 uM assessed as decrease in cell viability relative to control; assay type: functional, cell-based
[14] = tested on: Mast/stem cell growth factor receptor Kit (Homo sapiens), P10721 [D816V]; assay: Inhibition of DNA-tagged human KIT D816V mutant assessed as percent of control at 50000 nM by qPCR analysis relative to control; set-up: scale not given: the % may be the effect or the level left
[15] = tested on: Hepatocyte growth factor receptor (Homo sapiens), P08581 [M1250T]; assay: Inhibition of DNA-tagged human MET M1250T mutant assessed as percent of control at 50000 nM by qPCR analysis relative to control; set-up: scale not given: the % may be the effect or the level left
[16] = target: Dual specificity mitogen-activated protein kinase kinase 7 (Homo sapiens) (UniProt O14733); assay: Inhibition of DNA-tagged human MKK7 assessed as percent of control at 50000 nM by qPCR analysis relative to control; set-up: scale not given: the % may be the effect or the level left
[17] = target: Serine/threonine-protein kinase mTOR (Homo sapiens) (UniProt P42345); assay: Inhibition of DNA-tagged human MTOR assessed as percent of control at 50000 nM by qPCR analysis relative to control; set-up: scale not given: the % may be the effect or the level left
[18] = target: Serine/threonine-protein kinase NIM1 (Homo sapiens) (UniProt Q8IY84); assay: Inhibition of DNA-tagged human NIM1 assessed as percent of control at 50000 nM by qPCR analysis relative to control; set-up: scale not given: the % may be the effect or the level left
[19] = target: Mitogen-activated protein kinase 12 (Homo sapiens) (UniProt P53778); assay: Inhibition of DNA-tagged human p38-gamma assessed as percent of control at 50000 nM by qPCR analysis relative to control; set-up: scale not given: the % may be the effect or the level left
[20] = target: Cyclin-dependent kinase 15 (Homo sapiens) (UniProt Q96Q40); assay: Inhibition of DNA-tagged human PFTAIRE2 assessed as percent of control at 50000 nM by qPCR analysis relative to control; set-up: scale not given: the % may be the effect or the level left
[21] = target: Phosphatidylinositol 3-kinase C2 domain-containing subunit gamma (Homo sapiens) (UniProt O75747); assay: Inhibition of DNA-tagged human PIK3C2G assessed as percent of control at 50000 nM by qPCR analysis relative to control; set-up: scale not given: the % may be the effect or the level left
[22] = target: Serine/threonine-protein kinase pim-3 (Homo sapiens) (UniProt Q86V86); assay: Inhibition of DNA-tagged human PIM3 assessed as percent of control at 50000 nM by qPCR analysis relative to control; set-up: scale not given: the % may be the effect or the level left
[23] = target: Serine/threonine-protein kinase N2 (Homo sapiens) (UniProt Q16513); assay: Inhibition of DNA-tagged human PKN2 assessed as percent of control at 50000 nM by qPCR analysis relative to control; set-up: scale not given: the % may be the effect or the level left
[24] = target: Proto-oncogene tyrosine-protein kinase ROS (Homo sapiens) (UniProt P08922); assay: Inhibition of DNA-tagged human ROS1 assessed as percent of control at 50000 nM by qPCR analysis relative to control; set-up: scale not given: the % may be the effect or the level left
[25] = target: Ribosomal protein S6 kinase alpha-5 (Homo sapiens) (UniProt O75582); assay: Inhibition of DNA-tagged human N-terminal RPS6KA5 kinase domain 1 assessed as percent of control at 50000 nM by qPCR analysis relative to control; set-up: scale not given: the % may be the effect or the level left
[26] = target: Ribosomal protein S6 kinase alpha-6 (Homo sapiens) (UniProt Q9UK32); assay: Inhibition of DNA-tagged human N-terminal RSK4 kinase domain 1 assessed as percent of control at 50000 nM by qPCR analysis relative to control; set-up: scale not given: the % may be the effect or the level left
[27] = target: Serine/threonine-protein kinase SBK1 (Homo sapiens) (UniProt Q52WX2); assay: Inhibition of DNA-tagged human SBK1 assessed as percent of control at 50000 nM by qPCR analysis relative to control; set-up: scale not given: the % may be the effect or the level left
[28] = target: Serine/threonine-protein kinase Sgk3 (Homo sapiens) (UniProt Q96BR1); assay: Inhibition of DNA-tagged human SGK3 assessed as percent of control at 50000 nM by qPCR analysis relative to control; set-up: scale not given: the % may be the effect or the level left
[29] = target: TGF-beta receptor type-2 (Homo sapiens) (UniProt P37173); assay: Inhibition of DNA-tagged human TGFBR2 assessed as percent of control at 50000 nM by qPCR analysis relative to control; set-up: scale not given: the % may be the effect or the level left
TGF-beta receptor type-2 (Homo sapiens), sequence (P37173 whole entry): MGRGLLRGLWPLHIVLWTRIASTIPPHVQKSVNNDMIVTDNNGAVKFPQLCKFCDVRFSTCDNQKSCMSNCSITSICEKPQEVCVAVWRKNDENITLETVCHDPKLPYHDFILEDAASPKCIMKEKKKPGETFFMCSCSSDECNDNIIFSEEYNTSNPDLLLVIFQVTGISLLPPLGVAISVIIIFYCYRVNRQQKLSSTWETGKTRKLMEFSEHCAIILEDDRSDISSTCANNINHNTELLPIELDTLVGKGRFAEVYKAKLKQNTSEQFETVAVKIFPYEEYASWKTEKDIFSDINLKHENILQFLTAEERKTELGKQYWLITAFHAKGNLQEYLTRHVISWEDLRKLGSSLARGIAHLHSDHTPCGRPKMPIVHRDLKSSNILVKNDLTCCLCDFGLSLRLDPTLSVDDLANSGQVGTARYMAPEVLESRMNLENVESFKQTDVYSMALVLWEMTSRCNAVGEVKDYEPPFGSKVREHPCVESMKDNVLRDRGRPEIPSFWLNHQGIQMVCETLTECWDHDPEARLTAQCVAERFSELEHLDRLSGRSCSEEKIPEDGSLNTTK

Fibroblast growth factor receptor 3 (Homo sapiens), P22607 [G697C], sequence (P22607 whole entry G697C): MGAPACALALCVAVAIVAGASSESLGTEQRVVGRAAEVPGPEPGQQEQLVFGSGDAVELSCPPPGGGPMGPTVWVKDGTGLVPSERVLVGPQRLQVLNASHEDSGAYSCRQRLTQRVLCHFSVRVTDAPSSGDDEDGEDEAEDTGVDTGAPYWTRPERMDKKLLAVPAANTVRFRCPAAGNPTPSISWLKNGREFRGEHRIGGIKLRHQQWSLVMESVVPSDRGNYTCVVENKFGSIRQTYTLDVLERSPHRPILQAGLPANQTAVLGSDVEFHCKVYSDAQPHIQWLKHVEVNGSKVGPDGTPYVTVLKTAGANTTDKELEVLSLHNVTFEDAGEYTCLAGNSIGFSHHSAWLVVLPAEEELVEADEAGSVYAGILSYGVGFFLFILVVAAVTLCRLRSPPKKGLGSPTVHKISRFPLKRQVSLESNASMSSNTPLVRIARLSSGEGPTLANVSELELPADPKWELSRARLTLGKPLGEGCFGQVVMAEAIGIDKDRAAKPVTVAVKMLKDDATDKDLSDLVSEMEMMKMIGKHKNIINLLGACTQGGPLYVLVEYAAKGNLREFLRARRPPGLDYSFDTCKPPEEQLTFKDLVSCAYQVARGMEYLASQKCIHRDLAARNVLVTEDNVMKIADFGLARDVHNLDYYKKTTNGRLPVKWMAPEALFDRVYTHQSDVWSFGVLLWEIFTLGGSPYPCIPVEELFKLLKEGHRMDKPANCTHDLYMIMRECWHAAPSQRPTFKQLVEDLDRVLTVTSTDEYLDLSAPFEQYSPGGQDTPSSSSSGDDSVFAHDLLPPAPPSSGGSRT
Phosphatidylinositol 3-kinase C2 domain-containing subunit gamma (Homo sapiens), sequence (O75747 whole entry, the tested form may be a part): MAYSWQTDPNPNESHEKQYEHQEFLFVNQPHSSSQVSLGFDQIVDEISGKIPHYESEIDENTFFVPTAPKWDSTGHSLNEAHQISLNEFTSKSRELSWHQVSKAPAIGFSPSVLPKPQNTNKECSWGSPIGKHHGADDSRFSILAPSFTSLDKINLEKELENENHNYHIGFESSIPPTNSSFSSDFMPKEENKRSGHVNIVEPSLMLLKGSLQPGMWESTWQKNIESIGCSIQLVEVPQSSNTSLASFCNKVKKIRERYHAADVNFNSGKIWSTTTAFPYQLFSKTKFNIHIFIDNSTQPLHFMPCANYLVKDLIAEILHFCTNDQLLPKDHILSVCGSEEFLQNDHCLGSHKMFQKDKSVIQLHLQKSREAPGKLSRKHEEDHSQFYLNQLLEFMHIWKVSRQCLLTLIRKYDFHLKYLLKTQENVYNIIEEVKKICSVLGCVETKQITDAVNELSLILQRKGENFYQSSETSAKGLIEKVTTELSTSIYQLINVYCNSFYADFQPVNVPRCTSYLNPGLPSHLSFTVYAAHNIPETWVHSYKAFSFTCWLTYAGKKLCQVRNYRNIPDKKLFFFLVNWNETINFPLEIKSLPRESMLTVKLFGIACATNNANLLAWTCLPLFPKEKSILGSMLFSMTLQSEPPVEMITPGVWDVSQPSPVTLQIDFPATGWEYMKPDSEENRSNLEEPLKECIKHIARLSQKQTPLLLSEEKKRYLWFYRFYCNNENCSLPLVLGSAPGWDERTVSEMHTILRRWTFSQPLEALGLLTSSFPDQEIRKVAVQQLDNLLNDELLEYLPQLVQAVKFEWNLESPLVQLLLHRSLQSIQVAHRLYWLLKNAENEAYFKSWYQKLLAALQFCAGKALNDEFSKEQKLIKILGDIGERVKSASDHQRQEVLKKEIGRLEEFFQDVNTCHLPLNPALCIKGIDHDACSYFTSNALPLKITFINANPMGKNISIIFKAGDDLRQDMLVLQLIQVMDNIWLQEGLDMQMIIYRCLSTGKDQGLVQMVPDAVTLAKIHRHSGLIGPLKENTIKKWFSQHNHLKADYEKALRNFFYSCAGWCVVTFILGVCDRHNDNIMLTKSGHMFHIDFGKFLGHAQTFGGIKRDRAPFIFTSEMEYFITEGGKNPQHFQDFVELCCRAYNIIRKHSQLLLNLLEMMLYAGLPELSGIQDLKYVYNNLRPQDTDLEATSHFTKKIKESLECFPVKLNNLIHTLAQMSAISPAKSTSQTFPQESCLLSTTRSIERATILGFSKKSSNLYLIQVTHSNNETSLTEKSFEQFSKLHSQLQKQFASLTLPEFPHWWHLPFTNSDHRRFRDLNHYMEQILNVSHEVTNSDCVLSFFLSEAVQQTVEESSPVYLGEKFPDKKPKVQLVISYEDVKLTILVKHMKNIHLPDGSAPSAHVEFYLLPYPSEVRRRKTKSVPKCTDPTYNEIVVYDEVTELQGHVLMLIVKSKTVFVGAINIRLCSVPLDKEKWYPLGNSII
Ribosomal protein S6 kinase alpha-5 (Homo sapiens), sequence (O75582 whole entry, looked up, the tested form may be a part): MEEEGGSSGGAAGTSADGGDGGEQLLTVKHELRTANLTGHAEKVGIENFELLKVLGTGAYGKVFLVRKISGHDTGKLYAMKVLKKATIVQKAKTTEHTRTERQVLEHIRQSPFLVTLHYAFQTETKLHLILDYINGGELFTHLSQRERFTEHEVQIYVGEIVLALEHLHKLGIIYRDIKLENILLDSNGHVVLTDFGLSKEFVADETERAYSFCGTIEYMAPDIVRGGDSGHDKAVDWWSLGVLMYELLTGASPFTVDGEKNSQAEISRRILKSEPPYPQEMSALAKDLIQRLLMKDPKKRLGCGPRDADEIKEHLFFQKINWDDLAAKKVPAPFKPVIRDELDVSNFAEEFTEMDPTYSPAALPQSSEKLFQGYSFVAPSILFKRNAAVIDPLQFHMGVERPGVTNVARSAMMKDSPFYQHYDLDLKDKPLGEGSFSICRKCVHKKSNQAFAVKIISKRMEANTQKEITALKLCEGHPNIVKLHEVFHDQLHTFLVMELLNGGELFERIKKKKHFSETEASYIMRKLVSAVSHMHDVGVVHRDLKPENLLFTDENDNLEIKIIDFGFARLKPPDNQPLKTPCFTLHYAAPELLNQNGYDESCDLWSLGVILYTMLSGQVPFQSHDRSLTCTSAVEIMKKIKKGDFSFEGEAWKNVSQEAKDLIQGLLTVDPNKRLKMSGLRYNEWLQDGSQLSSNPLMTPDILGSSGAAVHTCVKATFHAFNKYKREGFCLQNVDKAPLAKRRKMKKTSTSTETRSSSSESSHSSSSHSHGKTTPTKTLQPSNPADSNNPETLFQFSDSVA
Ribosomal protein S6 kinase alpha-6 (Homo sapiens), sequence (Q9UK32 whole entry, the tested form may be a part): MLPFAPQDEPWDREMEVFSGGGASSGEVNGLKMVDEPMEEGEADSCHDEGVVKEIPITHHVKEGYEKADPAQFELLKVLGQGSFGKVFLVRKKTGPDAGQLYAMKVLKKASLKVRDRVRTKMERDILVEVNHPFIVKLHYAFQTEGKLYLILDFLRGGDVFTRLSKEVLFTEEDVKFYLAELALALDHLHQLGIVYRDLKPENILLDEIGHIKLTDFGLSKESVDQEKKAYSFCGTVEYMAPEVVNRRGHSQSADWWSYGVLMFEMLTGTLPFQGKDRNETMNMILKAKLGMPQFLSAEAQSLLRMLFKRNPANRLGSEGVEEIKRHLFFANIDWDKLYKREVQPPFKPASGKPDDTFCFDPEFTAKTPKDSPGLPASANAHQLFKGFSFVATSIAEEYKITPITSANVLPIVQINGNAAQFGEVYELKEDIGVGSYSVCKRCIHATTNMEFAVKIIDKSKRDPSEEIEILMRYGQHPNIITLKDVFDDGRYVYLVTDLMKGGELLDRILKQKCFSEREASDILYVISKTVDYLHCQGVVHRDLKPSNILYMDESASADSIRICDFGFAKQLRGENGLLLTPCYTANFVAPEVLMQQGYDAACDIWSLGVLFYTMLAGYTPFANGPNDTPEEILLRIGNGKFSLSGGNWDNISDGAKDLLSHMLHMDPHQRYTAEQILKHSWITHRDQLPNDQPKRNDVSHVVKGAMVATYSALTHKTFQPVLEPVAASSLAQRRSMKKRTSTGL
Serine/threonine-protein kinase NIM1 (Homo sapiens), sequence (Q8IY84 whole entry): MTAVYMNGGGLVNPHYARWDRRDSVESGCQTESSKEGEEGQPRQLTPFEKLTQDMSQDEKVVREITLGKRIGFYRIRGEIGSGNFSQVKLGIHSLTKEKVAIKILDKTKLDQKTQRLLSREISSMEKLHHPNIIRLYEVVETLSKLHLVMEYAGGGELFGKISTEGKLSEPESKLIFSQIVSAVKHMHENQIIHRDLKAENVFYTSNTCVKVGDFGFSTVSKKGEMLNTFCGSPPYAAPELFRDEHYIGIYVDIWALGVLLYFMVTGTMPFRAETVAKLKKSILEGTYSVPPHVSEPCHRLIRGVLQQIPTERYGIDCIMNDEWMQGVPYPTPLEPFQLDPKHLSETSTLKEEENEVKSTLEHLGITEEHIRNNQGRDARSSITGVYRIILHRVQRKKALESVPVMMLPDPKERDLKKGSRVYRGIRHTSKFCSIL

Question: For `CN1C(=O)/C(=C2/C(=O)Nc3ccccc32)c2ccccc21`, which Activity [1] is on record?
Answer: 98%

Question: And the Activity [2]?
Answer: 88%

Question: What about the Activity [3] of the same molecule?
Answer: 100%

Question: And the Activity [4]?
Answer: 100%

Question: And the Activity [5]?
Answer: 100%

Question: And the Activity [6]?
Answer: 89%

Question: What about the Activity [7] of the same molecule?
Answer: 84%

Question: And the Activity [8]?
Answer: 78%

Question: What about the Activity [9] of the same molecule?
Answer: 88%

Question: And the Activity [10]?
Answer: 86%

Question: What about the Activity [11] of the same molecule?
Answer: 100%

Question: And the Activity [12]?
Answer: 100%

Question: What about the Activity [13] of the same molecule?
Answer: 99%

Question: And the Activity (MV4-11)?
Answer: Active

Question: And the Activity [14]?
Answer: 100%

Question: What about the Activity [15] of the same molecule?
Answer: 80%

Question: And the Activity [16]?
Answer: 75%

Question: What about the Activity [17] of the same molecule?
Answer: 100%

Question: And the Activity [18]?
Answer: 86%

Question: And the Activity [19]?
Answer: 92%

Question: And the Activity [20]?
Answer: 88%

Question: What about the Activity [21] of the same molecule?
Answer: 99%

Question: What about the Activity [22] of the same molecule?
Answer: 79%

Question: What about the Activity [23] of the same molecule?
Answer: 99%

Question: What about the Activity [24] of the same molecule?
Answer: 81%

Question: And the Activity [25]?
Answer: 100%

Question: And the Activity [26]?
Answer: 99%

Question: And the Activity [27]?
Answer: 100%

Question: And the Activity [28]?
Answer: 68%

Question: What about the Activity [29] of the same molecule?
Answer: 94%

— ChEMBL document CHEMBL4804284
